These results are taken from patent US20050118226A1, “Methods for treating ACAT-related diseases” (priority 2003, published 2005).

“Also recorded” adds a separate entry of the source.

For assay [1], the target named is Aβ40 (Homo sapiens, UniProt P05067). Kind of assay: Turbidity assay of Aβ40 aggregation. The settings on record: 10 μM, absorbance at 400 nm over four days. As to the method: Aβ40 aggregation was monitored according to the method of Jarrett et al. (Jarrett et al., 1993). Briefly, Aβ40 (100 μg/ml) was incubated at 37° C. in TBS in a 384-well plate (60 μl/well). Well turbidity was monitored for four days by following absorbance at 400 nm. Aβ40 aggregation was promoted by the addition of “aged” (pre-incubated for 2 weeks at room temperature) Aβ42 (Aβ42/Aβ40=1/10) (Jarrett et al., 1993) or Zn/histine buffer (50 μM Zn++in 350 μM histine) (Bush et al., 1994). Absorbance of test wells was blanked on signal from samples without Aβ40. For some experiments, incubation buffers included CP-113,818 (10 μM).

Assay [2] has as its system synaptophysin. Briefly: Synaptophysin immunoreactivity in hippocampal CA1 region. The format is in vivo, mouse. The settings on record: CA1 layer of hippocampus, hAPP mice, vs placebo. As to the method: For histomorphological analyses, 8 to 15 histological sections (10 μm) were prepared from one hemisphere of 12 animals (6 placebo, 6 CP-113,818; 3 male, 3 female per group). Number and surface area of amyloid plaques were evaluated in both cortex and hippocampus. 6E10 (Signet; 1:5000; monoclonal) as primary antibody, and Cy™3 fluorescent goat anti-mouse IgG as secondary antibody (Jackson Immuno Research) were used for Aβ staining. Sections of the same brains were also used for synaptophysin staining (Chemicon; 1:5000; monoclonal). Synaptophysin immunoreactive spots were counted by light microscopy in the hippocampal CA1 region. The estimation of immunohistochemical reactions was done by computer-assisted quantification (IMAGE PRO PLUS, Media Cybernetics).

Assay [3] has as its system ACAT. Briefly: Cholesterol determinations in hAPP mice treated two months with CP-113,818 pellets. Type of assay: in vivo, mouse. To be noted: 7.2 mg/kg/day, 57 days. An excerpt:
hAPP transgenic mice overexpress human APP751 with the London (V717I) and Swedish (K670M/N671L) mutations under the regulatory control of the neuron specific murine (m)Thy-1 promoter (mThy-1-hAPP751; heterozygous with respect to the transgene, on a C57BL/6 F3 background) (Rockenstein et al., 2001). The hAPP colony was sustained by crossing transgenic APP751 with C57BL/6 (Harlan Winkelman, Germany). Corresponding littermates were used for control studies. All mice were housed according to standard animal care protocols, fed ad libitum with standard chow diet, and maintained in a pathogen-free environment in single ventilated cages at JSW Research. The transgenic status of each animal was confirmed by real time PCR of tail snips using specific primers and the appropriate hybridization probe. A modified Irvine test was regularly performed prior to the experiment to assess the neurological status of the animals; those showing disturbances were excluded from the experiments. Mice were then randomly assigned to different treatment groups and individually coded. Investigators performing behavioral testing, biochemical analyzes and histomorphological evaluations of the brains were blinded in terms of group allocation of the mice. […]
Animals were sacrificed the day after the last MWM training, on day 57 of treatment. […] Hematoxylin and eosin stained 6-8 um sections were analyzed for evidence of CP-113,818 toxicity.
Tissues were homogenized in the presence of trypsin (10 mg/ml) in a Dounce homogenizer on ice. Protein concentration of the homogenate was determined using the BCA protein assay kit (Pierce). […] Dried lipid pellets were dissolved in water and total amount of cholesterol was determined with an enzymatic assay (Sigma; cat. no. 402-20). As control, free cholesterol was determined with a different enzymatic assay (R-Biopharm GmbH, Darmstadt, Germany; cat. no. E0139050). The amount of cholesteryl-esters was calculated by subtracting free from total cholesterol. […]

Assay [4] relates to γ-secretase. Kind of assay: In vitro generation of APP intracellular domain (AICD), γ-secretase activity assay on CHO cell membrane fractions. Type of assay: biochemical, Chinese hamster. The settings on record: CHO cell (overexpressing APP) membrane fractions, increasing amounts of compound. As to the method:
Membrane preparation and in vitro generation of AICD were performed as described (Gu et al., 2001; Kim et al., 2002). P2 membrane fractions were prepared from CHO cells overexpressing wild type APP and resuspended in Buffer H (20 mM HEPES, 150 mM NaCl, 10% glycerol, 5 mM EDTA, pH 7.4) with protease inhibitors. In vitro cleavage experiments were performed by incubating the membrane fractions at 0° C. or 37° C. for 1 hour with the indicated amounts of CP-113,818. As a negative control, a specific γ-secretase inhibitor, L-685,458, was added to one of the samples.

Sequence of Aβ40 (P05067 672-711 limits assumed): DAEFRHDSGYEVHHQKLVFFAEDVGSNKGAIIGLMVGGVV

With `CCCCCCCC[C@H](SCCCCCC)C(=O)Nc1c(SC)cc(C)nc1SC` [CP-113,818], the “effect on metal- or Aβ42-mediated aggregation of Aβ40 in vitro” value in assay [1] was “failed to directly inhibit; also recorded: does not directly modulate”. Further, the “synaptic density as synaptophysin immunoreactivity” value in assay [2] is reported as “did not induce significant changes; also recorded: unchanged”. In assay [3], the “decrease of liver cholesterol” value came to 34%, the “decrease of liver cholesteryl-esters” value came out at 87% and the “decrease of serum cholesterol” value was determined as 35%. In addition, in assay [4], the “effect on γ-secretase activity (AICD generation) in vitro” value is recorded as “unaffected; also recorded: no direct effect”.
